Test results from publication PMC8288134, “Synthesis, potential antitumor activity, cell cycle analysis, and multitarget mechanisms of novel hydrazones incorporating a 4-methylsulfonylbenzene scaffold: a molecular docking study” (Journal of Enzyme Inhibition and Medicinal Chemistry, 2021).
Like-named read-outs stand apart in the source and are kept apart here.

Tests used:
[1] = tested on: CCRF-CEM; assay: NCI antitumor screen (SRB); type: cell-based; details: Homo sapiens, one dose 10 µM, read-out: Growth inhibition percentage (GI%)
[2] = tested on: HL-60(TB); assay: cells; type: cell-based, human; details: Homo sapiens, HL-60, HL-60(TB); one dose 10 µM; read-out: Growth inhibition percentage (GI%)
[3] = tested on: K-562; assay: NCI antitumor screen (SRB); type: cell-based; details: Homo sapiens, K562, read-out: Growth inhibition percentage (GI%)
[4] = tested on: A549/ATCC; assay: NCI antitumor screen (SRB); type: cell-based; details: Homo sapiens, one dose 10 µM, read-out: Growth inhibition percentage (GI%)
[5] = tested on: HOP-62; assay: NCI antitumor screen (SRB); type: cell-based; details: Homo sapiens, HOP-62, read-out: Growth inhibition percentage (GI%)
[6] = tested on: NCI-H226; assay: NCI antitumor screen (SRB); type: cell-based; details: Homo sapiens, one dose 10 µM, read-out: Growth inhibition percentage (GI%)
[7] = tested on: NCI-H522; assay: NCI antitumor screen (SRB); type: cell-based; details: Homo sapiens
[8] = tested on: HT29; assay: NCI antitumor screen (SRB); type: cell-based; details: Homo sapiens, HT-29, one dose 10 µM, read-out: Growth inhibition percentage (GI%)
[9] = tested on: SK-OV-3; assay: NCI antitumor screen (SRB); type: cell-based; details: Homo sapiens, one dose 10 µM, read-out: Growth inhibition percentage (GI%)
[10] = tested on: A498; assay: NCI antitumor screen (SRB); type: cell-based; details: Homo sapiens, one dose 10 µM, read-out: Growth inhibition percentage (GI%)
[11] = tested on: UO-31; assay: NCI antitumor screen (SRB); type: cell-based, human; details: Homo sapiens, one dose 10 µM, read-out: Growth inhibition percentage (GI%)
[12] = tested on: PC-3; assay: NCI antitumor screen (SRB); type: cell-based; details: Homo sapiens, one dose 10 µM, read-out: Growth inhibition percentage (GI%)
[13] = tested on: T-47D; assay: NCI antitumor screen (SRB); type: cell-based; details: Homo sapiens, T47D, one dose 10 µM, read-out: Growth inhibition percentage (GI%)
[14] = tested on: full panel of 59 cancer cell lines; assay: NCI antitumor screen, full panel; details: one dose 10 µM
[15] = tested on: MOLT-4; assay: NCI antitumor screen (SRB); type: cell-based; details: Homo sapiens, one dose 10 µM, read-out: Growth inhibition percentage (GI%)
[16] = tested on: SK-MEL-2; assay: NCI antitumor screen (SRB); type: cell-based; details: Homo sapiens
[17] = tested on: SR; assay: NCI antitumor screen (SRB); type: cell-based; details: Homo sapiens, one dose 10 µM, read-out: Growth inhibition percentage (GI%)
[18] = tested on: HCT-116; assay: NCI antitumor screen (SRB); type: cell-based; details: Homo sapiens, read-out: Growth inhibition percentage (GI%)
[19] = tested on: UACC-257; assay: NCI antitumor screen (SRB); type: cell-based, human; details: Homo sapiens, one dose 10 µM, read-out: Growth inhibition percentage (GI%)
[20] = tested on: OVCAR-8; assay: NCI antitumor screen (SRB); type: cell-based; details: Homo sapiens, one dose 10 µM, read-out: Growth inhibition percentage (GI%)
[21] = tested on: SNB-75; assay: NCI antitumor screen (SRB); type: cell-based; details: Homo sapiens, one dose 10 µM, read-out: Growth inhibition percentage (GI%)
[22] = tested on: CAKI-1; assay: NCI antitumor screen (SRB); type: cell-based; details: Homo sapiens, one dose 10 µM, read-out: Growth inhibition percentage (GI%)
[23] = NCI-H522, read-out: Growth inhibition percentage (GI%)
[24] = SK-MEL-2, read-out: Growth inhibition percentage (GI%)

## CS(=O)(=O)c1ccc(C(=O)NN=Cc2cccnc2)cc1 [Compound 5, 4-(Methylsulfonyl)-N'-(pyridin-3-ylmethylene)benzohydrazide]
[1]
  inhibition at 10 µM: 11.1%
[2]
  inhibition at 10 µM: 20.5%
[3]
  inhibition at 10 µM: 18.8%
[4]
  inhibition at 10 µM: 10.6%
[5]
  inhibition at 10 µM: 16.5%
[6]
  inhibition at 10 µM: 11.9%
[7]; [23]
  inhibition at 10 µM: 15.1%
[8]
  inhibition at 10 µM: 13.3%
[9]
  inhibition at 10 µM: 16.9%
[10]
  inhibition at 10 µM: 11.2%
[11]; UO-31
  inhibition at 10 µM: 16.3%
[12]
  inhibition at 10 µM: 17.9%
[13]
  inhibition at 10 µM: 13.7%
[14]
  PCE: positive cytotoxic effect (number of cell lines with GI 10 to 100% / total number of cell lines): 13/59

## CS(=O)(=O)c1ccc(C(=O)NN=Cc2ccc(Cl)cc2)cc1 [Compound 7, N'-(4-Chlorobenzylidene)-4-(methylsulfonyl)benzohydrazide]
[2]
  inhibition at 10 µM: 52.1%
[3]
  inhibition at 10 µM: 14%
[15]
  inhibition at 10 µM: 29.4%
[7]; [23]
  inhibition at 10 µM: 15.7%
[16]; [24]
  inhibition at 10 µM: 12.8%
[10]
  inhibition at 10 µM: 12.3%
[12]
  inhibition at 10 µM: 22.8%
[14]
  PCE: positive cytotoxic effect (number of cell lines with GI 10 to 100% / total number of cell lines): 7/59

## CS(=O)(=O)c1ccc(C(=O)NN=Cc2ccc(F)cc2)cc1 [Compound 8, N'-(4-Fluorobenzylidene)-4-(methylsulfonyl)benzohydrazide]
[1]
  inhibition at 10 µM: 11.8%
[2]
  inhibition at 10 µM: 23.1%
[3]
  inhibition at 10 µM: 13.6%
[15]
  inhibition at 10 µM: 23.9%
[17]
  inhibition at 10 µM: 20.2%
[4]
  inhibition at 10 µM: 11.1%
[7]; [23]
  inhibition at 10 µM: 15.9%
[18]
  inhibition at 10 µM: 10.8%
[19]; UACC-257
  inhibition at 10 µM: 18.4%
[14]
  PCE: positive cytotoxic effect (number of cell lines with GI 10 to 100% / total number of cell lines): 9/59

## COc1ccc(C=NNC(=O)c2ccc(S(C)(=O)=O)cc2)cc1 [Compound 10, N'-(4-Methoxybenzylidene)-4-(methylsulfonyl)benzohydrazide]
[1]
  inhibition at 10 µM: 10.6%
[2]
  inhibition at 10 µM: 42.9%
[15]
  inhibition at 10 µM: 21.1%
[4]
  inhibition at 10 µM: 29.8%
[6]
  inhibition at 10 µM: 13.4%
[7]; [23]
  inhibition at 10 µM: 20.8%
[8]
  inhibition at 10 µM: 10.8%
[16]; [24]
  inhibition at 10 µM: 11.8%
[19]; UACC-257
  inhibition at 10 µM: 29%
[20]
  inhibition at 10 µM: 11.3%
[12]
  inhibition at 10 µM: 13.8%
[14]
  PCE: positive cytotoxic effect (number of cell lines with GI 10 to 100% / total number of cell lines): 11/59

## CS(=O)(=O)c1ccc(C(=O)N/N=C/c2ccc(O)cc2)cc1 [Compound 11]
[2]
  inhibition at 10 µM: 50.5%
[3]
  inhibition at 10 µM: 26.2%
[15]
  inhibition at 10 µM: 32.5%
[7]; [23]
  inhibition at 10 µM: 11.7%
[12]
  inhibition at 10 µM: 10.9%
[14]
  PCE: positive cytotoxic effect (number of cell lines with GI 10 to 100% / total number of cell lines): 5/59

## CN(C)c1ccc(C=NNC(=O)c2ccc(S(C)(=O)=O)cc2)cc1 [Compound 12, N'-(4-(Dimethylamino)benzylidene)-4-(methylsulfonyl)benzohydrazide]
[2]
  inhibition at 10 µM: 38%
[3]
  inhibition at 10 µM: 17.2%
[15]
  inhibition at 10 µM: 29.8%
[4]
  inhibition at 10 µM: 28.4%
[5]
  inhibition at 10 µM: 11.4%
[7]; [23]
  inhibition at 10 µM: 40.4%
[8]
  inhibition at 10 µM: 20.5%
[19]; UACC-257
  inhibition at 10 µM: 39.2%
[11]; UO-31
  inhibition at 10 µM: 11.2%
[14]
  PCE: positive cytotoxic effect (number of cell lines with GI 10 to 100% / total number of cell lines): 9/59

## CS(=O)(=O)c1ccc(C(=O)NN=Cc2ccccc2Cl)cc1 [Compound 13, N'-(2-Chlorobenzylidene)-4-(methylsulfonyl)benzohydrazide]
[2]
  inhibition at 10 µM: 47.7%
[3]
  inhibition at 10 µM: 32.5%
[15]
  inhibition at 10 µM: 32.3%
[4]
  inhibition at 10 µM: 21.6%
[5]
  inhibition at 10 µM: 12.7%
[21]
  inhibition at 10 µM: 15.1%
[19]; UACC-257
  inhibition at 10 µM: 35.5%
[9]
  inhibition at 10 µM: 11.7%
[11]; UO-31
  inhibition at 10 µM: 15.7%
[13]
  inhibition at 10 µM: 12.5%
[14]
  PCE: positive cytotoxic effect (number of cell lines with GI 10 to 100% / total number of cell lines): 10/59

## CS(=O)(=O)c1ccc(C(=O)NN=Cc2ccccc2F)cc1 [Compound 14, N'-(2-Fluorobenzylidene)-4-(methylsulfonyl)benzohydrazide]
[2]
  inhibition at 10 µM: 36%
[3]
  inhibition at 10 µM: 25.7%
[15]
  inhibition at 10 µM: 26.4%
[17]
  inhibition at 10 µM: 49.2%
[4]
  inhibition at 10 µM: 29.3%
[5]
  inhibition at 10 µM: 15.8%
[7]; [23]
  inhibition at 10 µM: 26%
[8]
  inhibition at 10 µM: 18.6%
[19]; UACC-257
  inhibition at 10 µM: 42.4%
[20]
  inhibition at 10 µM: 14.5%
[22]
  inhibition at 10 µM: 11.7%
[13]
  inhibition at 10 µM: 11.8%
[14]
  PCE: positive cytotoxic effect (number of cell lines with GI 10 to 100% / total number of cell lines): 12/59

## COc1ccccc1C=NNC(=O)c1ccc(S(C)(=O)=O)cc1 [Compound 15, N'-(2-Methoxybenzylidene)-4-(methylsulfonyl)benzohydrazide]
[1]
  inhibition at 10 µM: 16.1%
[2]
  inhibition at 10 µM: 36.5%
[3]
  inhibition at 10 µM: 23.4%
[15]
  inhibition at 10 µM: 11.6%
[17]
  inhibition at 10 µM: 15.6%
[4]
  inhibition at 10 µM: 11.9%
[5]
  inhibition at 10 µM: 18.9%
[6]
  inhibition at 10 µM: 10.3%
[18]
  inhibition at 10 µM: 10.7%
[19]; UACC-257
  inhibition at 10 µM: 10.1%
[9]
  inhibition at 10 µM: 17.1%
[11]; UO-31
  inhibition at 10 µM: 14.4%
[12]
  inhibition at 10 µM: 19.1%
[13]
  inhibition at 10 µM: 18.2%
[14]
  PCE: positive cytotoxic effect (number of cell lines with GI 10 to 100% / total number of cell lines): 14/59

## COc1ccc(C=NNC(=O)c2ccc(S(C)(=O)=O)cc2)cc1OC [Compound 21, N'-(3,4-Dimethoxybenzylidene)-4-(methylsulfonyl)benzohydrazide]
[2]
  inhibition at 10 µM: 45.9%
[3]
  inhibition at 10 µM: 19.1%
[15]
  inhibition at 10 µM: 34.1%
[7]; [23]
  inhibition at 10 µM: 15.7%
[18]
  inhibition at 10 µM: 11%
[21]
  inhibition at 10 µM: 14.2%
[22]
  inhibition at 10 µM: 11%
[12]
  inhibition at 10 µM: 11.5%
[14]
  PCE: positive cytotoxic effect (number of cell lines with GI 10 to 100% / total number of cell lines): 8/59

## CS(=O)(=O)c1ccc(C(=O)NN=Cc2ccc3c(c2)OCO3)cc1 [Compound 22, N'-(Benzo[d][1,3]dioxol-5-ylmethylene)-4-(methylsulfonyl)benzohydrazide]
[1]
  inhibition at 10 µM: 13%
[2]
  inhibition at 10 µM: 43%
[3]
  inhibition at 10 µM: 14.5%
[15]
  inhibition at 10 µM: 29.9%
[4]
  inhibition at 10 µM: 32.3%
[7]; [23]
  inhibition at 10 µM: 14%
[8]
  inhibition at 10 µM: 11%
[16]; [24]
  inhibition at 10 µM: 10.9%
[19]; UACC-257
  inhibition at 10 µM: 40.9%
[14]
  PCE: positive cytotoxic effect (number of cell lines with GI 10 to 100% / total number of cell lines): 9/59

## COc1cc(OC)c(OC)cc1/C=N/NC(=O)c1ccc(S(C)(=O)=O)cc1 [Compound 24]
[15]
  inhibition at 10 µM: 21.4%
[4]
  inhibition at 10 µM: 17.1%
[7]; NCI-H522, one dose 10 µM, read-out: Growth inhibition percentage (GI%)
  inhibition at 10 µM: 39.8%
[8]
  inhibition at 10 µM: 17.9%
[16]; SK-MEL-2, one dose 10 µM, read-out: Growth inhibition percentage (GI%)
  inhibition at 10 µM: 11.7%
[19]; UACC-257, UACC-257
  inhibition at 10 µM: 21.6%
[11]; UO-31, UO-31
  inhibition at 10 µM: 10.5%
[12]
  inhibition at 10 µM: 18.6%
[14]
  PCE: positive cytotoxic effect (number of cell lines with GI 10 to 100% / total number of cell lines): 8/59
